Assay [1] has as its system Truncated N-terminal huntington 150 Q-EGFP-Neuron 2a cells. The assay can be described thus: Measurement of x-Fold (polyglutamine aggregation inhibitory activity). Format: cell-based. As for the experimental part:
In the present invention, the polyglutamine aggregation inhibitory activity (x-Fold) can be measured, for example, by the method described in the Example.
The number of the aggregated cells, and the total number of cells were counted by Array Scan V T1 (manufactured by Cellomics, Pittuburg, USA), and the ratio of the aggregated cells to the total number of cells was determined (x-Fold). […]

Assay [2] has as its system SOC (store operated calcium channel). The assay can be described thus: Measurement of SOC IC50 (thapsigargin store depletion, calcium re-addition, CHO cells). In kind it is cell-based. To be noted: read-out: SOC IC50. As for the experimental part:
The SOC (store operated calcium channel)-suppressive action can be measured by the method described in the Example and using, for example, FDSS 3000.
CHO cell culture medium was replaced with a BSS solution which is an extracellular fluidfree of calcium, the compound of the present invention was added 1 min later, and 1 μM thapsigargin was allowed to act thereon 2 min later to deplete intracellular calcium store. […]

Assay [3] deals with transglutaminase (TGase). The assay can be described thus: Measurement of TG (TGase inhibitory activity, monodansyl cadaverine / N,N-dimethylcasein fluorescence, FDSS 3000). In kind it is biochemical. The gist of the method:
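Compound (1 μL of 10 mM stock) added to 0.1 mL reaction: 100 mM HEPES-NaOH pH 7.5, 1 mM CaCl2, 20 μM monodansyl cadaverine, 0.05 mg/mL N,N-dimethylcasein, 5 μg/mL TGase. Rate of fluorescence change at 340 nm measured; DMSO control set to 100; TG50 is the concentration halving activity.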

The mark [4] stands for this setting: ratio of aggregated cells to total number of cells, compound 20 μM, 20 hr, almost 1 without compound, smaller = stronger inhibition.
[5] abbreviates: CHO cells, 1 μM thapsigargin, 2 mM calcium chloride.
[6] abbreviates: TGase activity with compound (10 mM, 1 μL in 0.1 ml enzyme reaction solution), DMSO control taken as 100.
Where [7] appears, read: polyglutamine aggregation, Truncated N-terminal huntington 150 Q-EGFP-Neuron 2a cells.
The mark [8] stands for this setting: TGase inhibitory activity measurement, unit not given.
Where [9] appears, read: polyglutamine aggregation inhibitory activity, Table 1.

Each structure is given as a SMILES string. Like-named read-outs stand apart in the source and are kept apart here.

The term IC50 denotes the concentration that inhibits the measured activity by half.

For the molecule `NC(=O)CC(N)C(=O)OB(c1ccc(COCc2ccc(B(OC(=O)C(N)CC(N)=O)c3ccc(C(F)(F)F)cc3)cc2)cc1)c1ccc(C(F)(F)F)cc1` (stereo not shown) [Example 425, bis(4,4′-(p-trifluoromethylphenyl-asparagineboryl)benzyl)ether], the x-Fold in assay [1] (setting [4]) came to 0.9. Also, in assay [2] (setting [5]), the IC50 stood at 500 nM. In assay [3] (setting [6]), the “TGase activity remaining (% of DMSO control = 100)” value came to 130.

`NCCOB(c1ccc(COCc2ccc(B(OCCN)c3ccc(C(F)(F)F)cc3)cc2)cc1)c1ccc(C(F)(F)F)cc1` [Example 426, bis(4,4′-(p-trifluoromethylphenyl-aminoethoxyboryl)benzyl)ether]: the x-Fold in assay [1] (setting [7]) and in assay [1] (setting [4]) was 0.93 each time. Besides, the IC50 in assay [2] (setting [5]) was 1200 nM. The “TGase activity remaining (% of DMSO control = 100)” value in assay [3] (setting [6]) and in assay [3] (setting [8]) was 19 throughout.

Take `CNCCOB(c1ccccc1)c1ccc(COc2ccc(B(OCCNC)c3ccccc3)cc2)cc1` [Example 427, (4-phenyl-N-methylaminoethoxyborylphenyl) (4′-phenyl-N-methylaminoethoxyborylbenzyl)ether]: the x-Fold in assay [1] (setting [9]) was found to be 1.02; in assay [1] (setting [7]), 0.73; in assay [1] (setting [4]) it was 0.73. The IC50 in assay [2] (setting [5]) amounted to 800 nM. The “TGase activity remaining (% of DMSO control = 100)” value in assay [3] (setting [6]) and in assay [3] (setting [8]) was 20 each time.

For `CN(C)CCOB(c1ccccc1)c1ccc(COc2ccc(B(OCCN(C)C)c3ccccc3)cc2)cc1` [Example 428, (4-phenyl-N,N-dimethylaminoethoxyborylphenyl) (4′-phenyl-N,N-dimethylaminoethoxyborylbenzyl)ether], the x-Fold was determined as 0.98 in assay [1] (setting [9]), 0.82 in assay [1] (setting [7]) and 0.82 in assay [1] (setting [4]). In assay [2] (setting [5]), the half-inhibitory concentration (IC50) is 1500 nM. Further, the “TGase activity remaining (% of DMSO control = 100)” value in assay [3] (setting [6]) and in assay [3] (setting [8]) was 53 in each case.

With `c1ccc(B(OCc2ccccn2)c2ccc(COc3ccc(B(OCc4ccccn4)c4ccccc4)cc3)cc2)cc1` [Example 429, (4-phenyl-2-pyridylmethoxyborylphenyl)(4′-phenyl-2-pyridylmethoxyborylbenzyl)ether], the x-Fold in assay [1] (setting [7]) and in assay [1] (setting [4]) was 0.81 each time. The concentration for half-maximal inhibition (IC50) in assay [2] (setting [5]) was found to be 700 nM. The “TGase activity remaining (% of DMSO control = 100)” value in assay [3] (setting [6]) and in assay [3] (setting [8]) was 102 in each case.

As to `c1ccc(B(OCc2ccccn2)c2ccc(Oc3ccc(B(OCc4ccccn4)c4ccccc4)cc3)cc2)cc1` [Example 432, bis(4,4′-(phenyl-2-pyridylmethoxyboryl)phenyl)ether], the x-Fold in assay [1] (setting [7]) and in assay [1] (setting [4]) was 0.71 throughout. Besides, the IC50 in assay [2] (setting [5]) came out at 300 nM. The “TGase activity remaining (% of DMSO control = 100)” value in assay [3] (setting [6]) and in assay [3] (setting [8]) was 60 throughout.

In the case of `NCCSB(c1ccccc1)c1ccc(Oc2ccc(B(SCCN)c3ccccc3)cc2)cc1` [Example 433, bis(4,4′-(phenyl-aminoethylthioboryl)phenyl)ether], the x-Fold in assay [1] (setting [7]) and in assay [1] (setting [4]) was 0.71 in each case. Moreover, in assay [2] (setting [5]), the IC50 amounted to 500 nM. Moreover, the “TGase activity remaining (% of DMSO control = 100)” value in assay [3] (setting [6]) and in assay [3] (setting [8]) was −5 throughout.

As for `NCC(OB(c1ccccc1)c1ccc(Oc2ccc(B(OC(CN)c3ccccc3)c3ccccc3)cc2)cc1)c1ccccc1` (stereo not shown) [Example 434, bis(4,4′-(phenyl-2-amino-1-phenylethoxyboryl)phenyl)ether], the x-Fold in assay [1] (setting [9]) is on record as 0.06; in assay [1] (setting [7]), 0.60; in assay [1] (setting [4]), 0.60. Moreover, the IC50 in assay [2] (setting [5]) came out at 400 nM; in assay [2] (Table 1), 1500 nM. For the same molecule, the “TGase activity remaining (% of DMSO control = 100)” value in assay [3] (setting [6]) and in assay [3] (setting [8]) was 43 each time.

Regarding `NCCCC(N)C(=O)OB(c1ccccc1)c1ccc(Oc2ccc(B(OC(=O)C(N)CCCN)c3ccccc3)cc2)cc1` (stereo not shown) [Example 435, bis(4,4′-(phenyl-ornithineboryl)phenyl)ether], the x-Fold in assay [1] (setting [7]) and in assay [1] (setting [4]) was 0.84 each time. Further, the IC50 in assay [2] (setting [5]) is 2000 nM. For the same molecule, the “TGase activity remaining (% of DMSO control = 100)” value in assay [3] (setting [6]) and in assay [3] (setting [8]) was 26 in each case.

As to `c1ccc(B(OCC2CCCN2)c2ccc(Oc3ccc(B(OCC4CCCN4)c4ccccc4)cc3)cc2)cc1` (stereo not shown) [Example 438, bis(4,4′-(phenyl-2-pyrrolidinemethoxyboryl)phenyl)ether], the x-Fold in assay [1] (setting [7]) and in assay [1] (setting [4]) was 0.67 in each case. Also, the concentration for half-maximal inhibition (IC50) in assay [2] (setting [5]) was 2000 nM. The “TGase activity remaining (% of DMSO control = 100)” value in assay [3] (setting [6]) and in assay [3] (setting [8]) was 29 in each case.

In the case of `c1ccc(COB(c2ccc(Oc3ccc(B(OCc4ccccn4)c4cccc5ccccc45)cc3)cc2)c2cccc3ccccc23)nc1` [Example 443, bis(4,4′-(naphthyl-2-pyridylmethoxyboryl)phenyl)ether], the x-Fold in assay [1] (setting [7]) and in assay [1] (setting [4]) was 0.63 throughout. Besides, in assay [2] (setting [5]), the half-maximal inhibitory concentration (IC50) stood at 3000 nM. Further, the “TGase activity remaining (% of DMSO control = 100)” value in assay [3] (setting [6]) and in assay [3] (setting [8]) was 84 in each case.

For `NC(=O)CCC(N)C(=O)OB(c1ccc(Oc2ccc(B(OC(=O)C(N)CCC(N)=O)c3cccc4ccccc34)cc2)cc1)c1cccc2ccccc12` (stereo not shown) [Example 444, bis(4,4′-(naphthylglutamineboryl)phenyl)ether], the x-Fold in assay [1] (setting [7]) and in assay [1] (setting [4]) was 0.65 each time. Besides, in assay [2] (setting [5]), the 50% inhibitory concentration (IC50) is 1400 nM. For the same molecule, the “TGase activity remaining (% of DMSO control = 100)” value in assay [3] (setting [6]) and in assay [3] (setting [8]) was 20 throughout.

With `NCCSB(c1ccccc1)c1ccc(COCc2ccc(B(SCCN)c3ccccc3)cc2)cc1` [Example 451, bis(4,4′-(phenyl-aminoethylthioboryl)benzyl)ether], the x-Fold in assay [1] (setting [7]) and in assay [1] (setting [4]) was 0.91 throughout. Besides, the IC50 in assay [2] (setting [5]) is 1400 nM. The “TGase activity remaining (% of DMSO control = 100)” value in assay [3] (setting [6]) and in assay [3] (setting [8]) was 6 in each case.

With `c1ccc(B(OCC2CCCN2)c2ccc(COCc3ccc(B(OCC4CCCN4)c4ccccc4)cc3)cc2)cc1` (stereo not shown) [Example 452, bis(4,4′-(phenyl-2-pyrrolidinemethoxyboryl)benzyl)ether], the x-Fold in assay [1] (setting [7]) and in assay [1] (setting [4]) was 0.96 throughout. Also, the IC50 in assay [2] (setting [5]) stood at 500 nM. In addition, the “TGase activity remaining (% of DMSO control = 100)” value in assay [3] (setting [6]) and in assay [3] (setting [8]) was 29 each time.

For `CCCCNCCOB(c1ccccc1)c1ccc(COCc2ccc(B(OCCNCCCC)c3ccccc3)cc2)cc1` [Example 454, bis(4,4′-(phenyl-butylaminoethoxyboryl)benzyl)ether], the x-Fold in assay [1] (setting [7]) and in assay [1] (setting [4]) was 0.97 in each case. Besides, in assay [2] (setting [5]), the concentration for half-maximal inhibition (IC50) was determined as 500 nM. Also, the “TGase activity remaining (% of DMSO control = 100)” value in assay [3] (setting [6]) and in assay [3] (setting [8]) was 15 each time.

Consider `c1ccc(NCCOB(c2ccccc2)c2ccc(COCc3ccc(B(OCCNc4ccccc4)c4ccccc4)cc3)cc2)cc1` [Example 455, bis(4,4′-(phenyl-phenylaminoethoxyboryl)benzyl)ether], for which the x-Fold in assay [1] (setting [7]) and in assay [1] (setting [4]) was 1.04 in each case. For the same molecule, the IC50 in assay [2] (setting [5]) stood at 500 nM. The “TGase activity remaining (% of DMSO control = 100)” value in assay [3] (setting [6]) and in assay [3] (setting [8]) was 23 in each case.

Source of the values: patent US8853424B2 (Japan Science and Technology Agency, priority 2008, dated 2014).
